# Values joined by “and” are separate entries in the source; they are usually repeats but may differ in a detail not shown here. Equal values may be shown once.
# Tested on: β1 integrin
# Experiment: Adhesion of activated, β1 integrin-expressing U937 cells to human fibronectin
# Assay type: cell-based
# Settings: for Percent Cells Bound: single well
# Experimental: U937 cells, a human monocyte-like, histiocytic lymphoma cell line, was acquired from American Type Culture Collection (ATCC No. CRL-1593). The cells were grown in the culture media described in Example I, materials. Cells were subcultured when the cell density was approximately 1×10^6 cells per ml. The β1 integrins on U937 cells were activated to bind to fibronectin by the addition of PMN Buffer, described in Example I. The human fibronectin (Gibco, No. XOO1) was diluted to 3.5 μg/ml with dPBS. A 1% Bovine Serum Albumin (BSA; Fraction V, ICN Corp., No. 810032) solution was prepared in dPBS and was sterile filtered using a […] disposable filter apparatus (Corning No. 25932-200) before use. The 1% BSA solution was used for blocking non-specific binding sites on the plastic wells of the assay plate. The assay plates used were Corning 96-well EIA/RIA plates (No. 25801).
# 350 ng of human fibronectin contained in 100 μl of dPBS was added to wells of the assay plate. The control wells were filled with dPBS only. The assay plate was incubated at room temperature for exactly two hours to allow the fibronectin to bind to the assay wells. The fibronectin solution was aspirated from the wells of the assay plate and the wells were washed 3× with 200 μl/well of dPBS. The assay wells were filled with the 1% BSA solution. Additional wells, not coated with fibronectin, were also filled with the 1% BSA solution; these wells were used to measure non-specific cell adherence to the plastic assay plate. The assay plate was incubated for 30 minutes at room temperature. The 1% BSA solution was removed from the wells of the assay plate by aspiration using a multichannel pipettor. The assay wells were washed 3× with 200 μl/well of dPBS. Approximately 50 μl of dPBS was added to the assay wells to ensure that they would not dry out prior to the initiation of the assay.
# U937 cells were harvested from culture, washed and labeled with calcein AM fluorescent dye as outlined in Example I, except that the concentration of calcein used to label U937 cells was 12.5 μM and cells were sedimented by centrifugation at 1000 rpm for 5 minutes. After the final wash (see Example I), the U937 cells were resuspended in ice-cold PMN Buffer to 1.25×10^5 cells/40 μl. The cell suspension was placed in the dark at room temperature until needed. The asperlin solutions were prepared as described in Example I.
# The 50 μl of dPBS remaining in the wells of the assay plate was removed by inverting the assay plate and tapping on paper toweling. 50 μl of the serially diluted asperlin solution was added to wells of the assay plate. Control wells received PMN buffer containing 2% DMSO and the assay plate was incubated for 10 minutes at room temperature.
# Calcein labeled cells, that had been gently mixed by swirling, were added to the wells in 40 μl volumes equal to 1.25×10^5 cells/well and 10 μl of PMA solution was immediately added to the wells of the assay plate and the assay was continued as described in Example 1. 100 μl of PMN buffer was added to all wells of the assay plate. The fluorescence of the adherent, activated β1 integrin expressing cells was measured using a fluorescent plate reader, as described in Example I.
# The percentage of β1 integrin expressing cells adhering to fibronectin coated wells was quantitated by the equation: % Cells Bound=((Bound Cell Fluorescence-Average Bound Fluorescence of the Non-specific Binding Control).div.Total Cell Fluorescence)×100.
compound,measurement,setting,value
"CC(=O)OC1C=CC(=O)OC1C1OC1C [Asperlin, 6,7-Anhydro-2,3,8-trideoxy-D-galacto-oct-2-enoic acidδ-lactone 4-acetate]",% Inhibition Cell Adhesion,Asperlin 1.56 μg/ml,-9%
same,Average Percent Bound,Asperlin 1.56 μg/ml,75%
same,Bound Cell Fluorescence,Asperlin 1.56 μg/ml,3002 fluorescence units/well and 3140 fluorescence units/well and 3132 fluorescence units/well
same,Percent Cells Bound,Asperlin 1.56 μg/ml,75% and 76% and 74%
same,% Inhibition Cell Adhesion,Asperlin 3.125 μg/ml,-9%
same,Average Percent Bound,Asperlin 3.125 μg/ml,75%
same,Bound Cell Fluorescence,Asperlin 3.125 μg/ml,3132 fluorescence units/well and 3140 fluorescence units/well and 2895 fluorescence units/well
same,Percent Cells Bound,Asperlin 3.125 μg/ml,76% and 75% and 73%
same,% Inhibition Cell Adhesion,Asperlin 6.25 μg/ml,10%
same,Average Percent Bound,Asperlin 6.25 μg/ml,62%
same,Bound Cell Fluorescence,Asperlin 6.25 μg/ml,2292 fluorescence units/well and 2344 fluorescence units/well and 2529 fluorescence units/well
same,Percent Cells Bound,Asperlin 6.25 μg/ml,60% and 65%
same,% Inhibition Cell Adhesion,Asperlin 12.5 μg/ml,-1%
same,Average Percent Bound,Asperlin 12.5 μg/ml,70%
same,Bound Cell Fluorescence,Asperlin 12.5 μg/ml,2331 fluorescence units/well and 2683 fluorescence units/well and 2985 fluorescence units/well
same,Percent Cells Bound,Asperlin 12.5 μg/ml,64% and 71% and 74%
same,% Inhibition Cell Adhesion,Asperlin 25 μg/ml,0%
same,Average Percent Bound,Asperlin 25 μg/ml,69%
same,Bound Cell Fluorescence,Asperlin 25 μg/ml,2404 fluorescence units/well and 2870 fluorescence units/well and 2969 fluorescence units/well
same,Percent Cells Bound,Asperlin 25 μg/ml,61% and 71% and 75%
same,% Inhibition Cell Adhesion,Asperlin 50 μg/ml,-6%
same,Average Percent Bound,Asperlin 50 μg/ml,73%
same,Bound Cell Fluorescence,Asperlin 50 μg/ml,2391 fluorescence units/well and 2791 fluorescence units/well and 3203 fluorescence units/well
same,Percent Cells Bound,Asperlin 50 μg/ml,68% and 74% and 77%
same,% Inhibition Cell Adhesion,Asperlin 100 μg/ml,0%
same,Average Percent Bound,Asperlin 100 μg/ml,69%
same,Bound Cell Fluorescence,Asperlin 100 μg/ml,2466 fluorescence units/well and 2854 fluorescence units/well and 3194 fluorescence units/well
same,Percent Cells Bound,Asperlin 100 μg/ml,61% and 70% and 75%
same,% Inhibition Cell Adhesion,Asperlin 200 μg/ml,3%
same,Average Percent Bound,Asperlin 200 μg/ml,67%
same,Bound Cell Fluorescence,Asperlin 200 μg/ml,2222 fluorescence units/well and 2736 fluorescence units/well and 2846 fluorescence units/well
same,Percent Cells Bound,Asperlin 200 μg/ml,61% and 68% and 71%
same,Effect on adhesion of β1 integrin expressing cells to fibronectin (in words),summary of Table II,does not block the adhesion of β1 integrin expressing cells to fibronectin

# From patent US5912266A, “Beta2 integrin cell adhesion molecule inhibitors” (American Home Products Corporation, priority 1997, dated 1999)
